Legend:
velvetleaf [1] = assay: Test A preemergence; type: in vivo, Abutilon theophrasti; settings: for Velvetleaf plant response rating (0 to 100 scale): 125 g ai/ha; for Velvetleaf plant response rating: 500 g ai/ha, 0 to 100 scale where 0 is no effect and 100 is complete control
In short: (§1)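 Visual injury scored 0–100 (100 = complete control) against untreated controls about 10 days after treatment in a greenhouse. Test chemicals, formulated with surfactant in non-phytotoxic solvent, were sprayed on soil preemergence or on 2-10 cm, one- to two-leaf plants postemergence.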

wheat = assay: Test A preemergence; type: in vivo, Triticum aestivum; settings: for Wheat plant response rating (0 to 100 scale): 125 g ai/ha; for Wheat plant response rating: 500 g ai/ha, 0 to 100 scale where 0 is no effect and 100 is complete control
In short: as §1

oilseed rape = assay: Test C postemergence; type: in vivo, Brassica napus; settings: for Oilseed Rape plant response rating: 31 g ai/ha; for Oilseed Rape plant response rating / Plant response rating, Oilseed Rape: scale 0 to 100 (0 no effect, 100 complete control)
In short: (§2)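 Rated visually on 0–100 (100 = complete control) after 13–15 days under glass. Treatments went onto freshly seeded loam/sand soil or onto emerged plants at the 1- to 4-leaf stage, using a surfactant-containing solvent formulation.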

velvetleaf [2] = assay: Test C postemergence; type: in vivo, Abutilon theophrasti; settings: for Velvetleaf plant response rating: 31 g ai/ha; for Velvetleaf plant response rating / Plant response rating, Velvetleaf: scale 0 to 100 (0 no effect, 100 complete control)
In short: as §2

pigweed = assay: Test C postemergence; type: in vivo, Amaranthus retroflexus; settings: for Pigweed plant response rating: 31 g ai/ha; for Pigweed plant response rating / Plant response rating, Pigweed: scale 0 to 100 (0 no effect, 100 complete control)
In short: as §2

waterhemp = assay: Test C postemergence; type: in vivo, Amaranthus rudis; settings: for Waterhemp plant response rating: 31 g ai/ha; for Waterhemp plant response rating / Plant response rating, Waterhemp: scale 0 to 100 (0 no effect, 100 complete control)
In short: as §2

giant foxtail = assay: Test A preemergence; type: in vivo, Setaria faberii; settings: for Foxtail, Giant plant response rating (0 to 100 scale): 125 g ai/ha; for Foxtail, Giant plant response rating: 500 g ai/ha, 0 to 100 scale where 0 is no effect and 100 is complete control
In short: as §1

blackgrass = assay: Test C postemergence; type: in vivo, Alopecurus myosuroides; settings: for Blackgrass plant response rating: 31 g ai/ha; for Blackgrass plant response rating / Plant response rating, Blackgrass: scale 0 to 100 (0 no effect, 100 complete control)
In short: as §2

soybean = assay: Test C postemergence; type: in vivo, Glycine max; settings: for Soybean plant response rating: 31 g ai/ha; for Soybean plant response rating / Plant response rating, Soybean: scale 0 to 100 (0 no effect, 100 complete control)
In short: as §2

johnsongrass = assay: Test C postemergence; type: in vivo, Sorghum halepense; settings: for Johnsongrass plant response rating: 31 g ai/ha; for Johnsongrass plant response rating / Plant response rating, Johnsongrass: scale 0 to 100 (0 no effect, 100 complete control)
In short: as §2

corn = assay: Test A postemergence; type: in vivo, Zea mays; settings: 0 to 100 scale where 0 is no effect and 100 is complete control; for Corn plant response rating: 125 g ai/ha; for Plant response rating, Corn: 500 g ai/ha
In short: as §1

morningglory [3] = assay: Test A preemergence; type: in vivo, Ipomoea spp.; settings: for Morningglory plant response rating (0 to 100 scale): 125 g ai/ha; for Morningglory plant response rating: 500 g ai/ha, 0 to 100 scale where 0 is no effect and 100 is complete control
In short: as §1

kochia = assay: Test C postemergence; type: in vivo, Kochia scoparia; settings: for Kochia plant response rating: 31 g ai/ha; for Kochia plant response rating / Plant response rating, Kochia: scale 0 to 100 (0 no effect, 100 complete control)
In short: as §2

ragweed = assay: Test C postemergence; type: in vivo, Ambrosia elatior; settings: for Ragweed plant response rating: 31 g ai/ha; for Ragweed plant response rating / Plant response rating, Ragweed: scale 0 to 100 (0 no effect, 100 complete control)
In short: as §2

velvetleaf [4] = assay: Test A postemergence; type: in vivo, Abutilon theophrasti; settings: 0 to 100 scale where 0 is no effect and 100 is complete control; for Velvetleaf plant response rating: 125 g ai/ha; for Plant response rating, Velvetleaf: 500 g ai/ha
In short: as §1

galium = assay: Test C postemergence; type: in vivo, Galium aparine; settings: for Galium plant response rating: 31 g ai/ha; for Galium plant response rating / Plant response rating, Galium: scale 0 to 100 (0 no effect, 100 complete control)
In short: as §2

morningglory [5] = assay: Test A postemergence; type: in vivo, Ipomoea spp.; settings: 0 to 100 scale where 0 is no effect and 100 is complete control; for Morningglory plant response rating: 125 g ai/ha; for Plant response rating, Morningglory: 500 g ai/ha
In short: as §1

wheat, winter = assay: Test C postemergence; type: in vivo, Triticum aestivum; settings: for Wheat plant response rating: 31 g ai/ha; for Wheat plant response rating / Plant response rating, Wheat: scale 0 to 100 (0 no effect, 100 complete control)
In short: as §2

[6] = 16 g ai/ha, postemergence, 0 is no effect, 100 is complete control
[7] = postemergence, visual rating, 13 to 15 days
[8] = 125 g ai/ha, postemergence, visual rating
[9] = Postemergence, 62 g ai/ha, 13 to 15 days

FC(F)(F)c1cnn(-c2c(Br)cccc2Oc2ncc(Cl)cn2)c1 [Compound 191]
Velvetleaf plant response rating (0 to 100 scale) (velvetleaf [1]): 80 | Velvetleaf plant response rating (velvetleaf [1]): 90 | Wheat plant response rating (0 to 100 scale) (wheat): 20 | Wheat plant response rating (wheat): 40 | Plant response rating (0 to 100), Oilseed Rape (oilseed rape; [6]): 10 | Oilseed Rape plant response rating (oilseed rape; [7]): 45 | Plant response rating, Oilseed Rape (oilseed rape; [8]): 50 | Plant response rating, Oilseed Rape (oilseed rape; Postemergence, 62 g ai/ha): 50 | Plant response rating (0 to 100), Velvetleaf (velvetleaf [2]; [6]): 50 | Velvetleaf plant response rating (velvetleaf [2]; [7]): 65 | Plant response rating, Velvetleaf (velvetleaf [2]; [8]): 65 | Plant response rating, Velvetleaf (velvetleaf [2]; Postemergence, 62 g ai/ha): 75 | Plant response rating (0 to 100), Pigweed (pigweed; [6]): 95 | Pigweed plant response rating (pigweed; [7]): 85 | Plant response rating, Pigweed (pigweed; [8]): 98 | Plant response rating, Pigweed (pigweed; Postemergence, 62 g ai/ha): 95 | Plant response rating (0 to 100), Waterhemp (waterhemp; [6]): 80 | Waterhemp plant response rating (waterhemp; [7]): 85 | Plant response rating, Waterhemp (waterhemp; [8]): 95 | Plant response rating, Waterhemp (waterhemp; Postemergence, 62 g ai/ha): 95 | Foxtail, Giant plant response rating (0 to 100 scale) (giant foxtail): 100 | Foxtail, Giant plant response rating (giant foxtail): 100 | Plant response rating (0 to 100), Blackgrass (blackgrass; [6]): 0 | Blackgrass plant response rating (blackgrass; [7]): 0 | Plant response rating, Blackgrass (blackgrass; [8]): 10 | Plant response rating, Blackgrass (blackgrass; Postemergence, 62 g ai/ha): 5 | Plant response rating (0 to 100), Soybean (soybean; [6]): 40 | Soybean plant response rating (soybean; [7]): 55 | Plant response rating, Soybean (soybean; [8]): 30 | Plant response rating, Soybean (soybean; Postemergence, 62 g ai/ha): 60 | Plant response rating (0 to 100), Johnsongrass (johnsongrass; [6]): 30 | Johnsongrass plant response rating (johnsongrass; [7]): 10 | Plant response rating, Johnsongrass (johnsongrass; [8]): 10 | Plant response rating, Johnsongrass (johnsongrass; Postemergence, 62 g ai/ha): 15 | Corn plant response rating (corn): 20 | Plant response rating, Corn (corn): 40 | Morningglory plant response rating (0 to 100 scale) (morningglory [3]): 50 | Morningglory plant response rating (morningglory [3]): 70 | Plant response rating (0 to 100), Kochia (kochia; [6]): 85 | Kochia plant response rating (kochia; [7]): 95 | Plant response rating, Kochia (kochia; [8]): 100 | Plant response rating, Kochia (kochia; Postemergence, 62 g ai/ha): 98 | Plant response rating (0 to 100), Ragweed (ragweed; [6]): 5 | Ragweed plant response rating (ragweed; [7]): 20 | Plant response rating, Ragweed (ragweed; [8]): 35 | Plant response rating, Ragweed (ragweed; Postemergence, 62 g ai/ha): 30 | Velvetleaf plant response rating (velvetleaf [4]): 90 | Plant response rating, Velvetleaf (velvetleaf [4]): 100 | Plant response rating (0 to 100), Galium (galium; [6]): 80 | Galium plant response rating (galium; [7]): 80 | Plant response rating, Galium (galium; [8]): 98 | Plant response rating, Galium (galium; Postemergence, 62 g ai/ha): 98 | Morningglory plant response rating (morningglory [5]): 80 | Plant response rating, Morningglory (morningglory [5]): 100 | Plant response rating (0 to 100), Wheat (wheat, winter; [6]): 0 | Wheat plant response rating (wheat, winter; [7]): 0 | Plant response rating, Wheat (wheat, winter; [8]): 0 | Plant response rating, Wheat (wheat, winter; Postemergence, 62 g ai/ha): 0

N#Cc1cnn(-c2c(C#N)cccc2Oc2ncc(Cl)cn2)c1 [Compound 200]
Velvetleaf plant response rating (0 to 100 scale) (velvetleaf [1]): 100 | Velvetleaf plant response rating (velvetleaf [1]): 100 | Wheat plant response rating (0 to 100 scale) (wheat): 30 | Wheat plant response rating (wheat): 50 | Oilseed Rape plant response rating (oilseed rape; [7]): 55 | Plant response rating, Oilseed Rape (oilseed rape; [8]): 50 | Plant response rating (0 to 100), Oilseed Rape (oilseed rape; 250 g ai/ha, postemergence): 70 | Plant response rating, Oilseed Rape (oilseed rape; [9]): 55 | Velvetleaf plant response rating (velvetleaf [2]; [7]): 20 | Plant response rating, Velvetleaf (velvetleaf [2]; [8]): 75 | Plant response rating (0 to 100), Velvetleaf (velvetleaf [2]; 250 g ai/ha, postemergence): 70 | Plant response rating, Velvetleaf (velvetleaf [2]; [9]): 50 | Pigweed plant response rating (pigweed; [7]): 75 | Plant response rating, Pigweed (pigweed; [8]): 95 | Plant response rating (0 to 100), Pigweed (pigweed; 250 g ai/ha, postemergence): 95 | Plant response rating, Pigweed (pigweed; [9]): 90 | Waterhemp plant response rating (waterhemp; [7]): 70 | Plant response rating, Waterhemp (waterhemp; [8]): 90 | Plant response rating (0 to 100), Waterhemp (waterhemp; 250 g ai/ha, postemergence): 95 | Plant response rating, Waterhemp (waterhemp; [9]): 98 | Foxtail, Giant plant response rating (0 to 100 scale) (giant foxtail): 100 | Foxtail, Giant plant response rating (giant foxtail): 100 | Blackgrass plant response rating (blackgrass; [7]): 5 | Plant response rating, Blackgrass (blackgrass; [8]): 10 | Plant response rating (0 to 100), Blackgrass (blackgrass; 250 g ai/ha, postemergence): 35 | Plant response rating, Blackgrass (blackgrass; [9]): 5 | Soybean plant response rating (soybean; [7]): 90 | Plant response rating, Soybean (soybean; [8]): 95 | Plant response rating (0 to 100), Soybean (soybean; 250 g ai/ha, postemergence): 90 | Plant response rating, Soybean (soybean; [9]): 95 | Johnsongrass plant response rating (johnsongrass; [7]): 5 | Plant response rating, Johnsongrass (johnsongrass; [8]): 5 | Plant response rating (0 to 100), Johnsongrass (johnsongrass; 250 g ai/ha, postemergence): 30 | Plant response rating, Johnsongrass (johnsongrass; [9]): 5 | Corn plant response rating (corn): 50 | Plant response rating, Corn (corn): 60 | Morningglory plant response rating (0 to 100 scale) (morningglory [3]): 90 | Morningglory plant response rating (morningglory [3]): 100 | Kochia plant response rating (kochia; [7]): 80 | Plant response rating, Kochia (kochia; [8]): 98 | Plant response rating (0 to 100), Kochia (kochia; 250 g ai/ha, postemergence): 100 | Plant response rating, Kochia (kochia; [9]): 95 | Ragweed plant response rating (ragweed; [7]): 25 | Plant response rating, Ragweed (ragweed; [8]): 55 | Plant response rating (0 to 100), Ragweed (ragweed; 250 g ai/ha, postemergence): 85 | Plant response rating, Ragweed (ragweed; [9]): 40 | Velvetleaf plant response rating (velvetleaf [4]): 100 | Plant response rating, Velvetleaf (velvetleaf [4]): 100 | Galium plant response rating (galium; [7]): 60 | Plant response rating, Galium (galium; [8]): 85 | Plant response rating (0 to 100), Galium (galium; 250 g ai/ha, postemergence): 95 | Plant response rating, Galium (galium; [9]): 65 | Morningglory plant response rating (morningglory [5]): 90 | Plant response rating, Morningglory (morningglory [5]): 100 | Wheat plant response rating (wheat, winter; [7]): 0 | Plant response rating, Wheat (wheat, winter; [8]): 5 | Plant response rating (0 to 100), Wheat (wheat, winter; 250 g ai/ha, postemergence): 5 | Plant response rating, Wheat (wheat, winter; [9]): 0

Source: US9695155B2, “Herbicidal substituted pyrimidinyloxy benzene compounds” (E. I. DU PONT DE NEMOURS AND COMPANY, priority 2013, dated 2017)
